For one data set, the target named is T1, ghrelin receptor (Rattus norvegicus, UniProt O08725).
T1 construct: Strips of approximately 1 cm (5 mm wide) of gastric fundus were cut out along the longitudinal axis; from tissue; host or cells: rat gastric fundus strips
As to the kind of experiment: Ghrelin antagonism in electrically stimulated rat gastric fundus strips (called In Vivo Test). As to conditions: isolated rat gastric fundus strips, electric-field stimulation, ghrelin 0.1 nM-1 μM concentration-response curves, antagonist contact time 30 minutes; read-out: IC50, antagonist activity towards the ghrelin receptor. On the procedure: Male Crl CD BR rats (Charles River, Italy) weighing 150-175 g were housed in a chamber at regulated temperature (22±1° C.) and humidity (55±10%) and with a 12-hour lightness-darkness cycle, for at least 7 days before their use. Feed and water were available ad libitum. The feed was removed 18 hours before sacrificing the animals. The rats were sacrificed by cervical dislocation, and the stomach was removed surgically, opened along the shorter curvature and placed in a Krebs solution (of composition (mM): 118.4 NaCl; 4.7 KCl; 2.5 CaCl2; 3.7 NaH2PO4; 1.2 MgSO4; 25 NaHCO3; 5.6 glucose). The animals were cared for and sacrificed according to the Sanofi-Aventis international code of ethics and the international principles governing the care and treatment of laboratory animals (EEC Directive 86/609, DJL358, 1, 12 Dec. 1987). […] The contractions were recorded by computer with a data recording and analysis system (Power Lab, Chart 5) connected to isotonic transducers (Ugo Basile, Varese, Italy) via preamplifiers (Octal Bridge Amp). […] The pKb values for the antagonists were calculated according to the Cheng-Prusoff equation (Kenakin et al., Competitive Antagonism, Pharmacologic Analysis of Drug-Receptor Interaction, 3rd edition, 331-373, Philadelphia, New York; Raven: Lippincott, 1997).

Molecules are shown by their SMILES.

For two molecules, melting point and IC50 results are on record in patent US9889130B2, “Substituted 3-benzofuranyl-indol-2-one-3-acetamididopiperazine derivatives, preparation thereof, and therapeutic use thereof” (SANOFI, priority 2009, dated 2018).

T1 sequence (O08725 whole entry): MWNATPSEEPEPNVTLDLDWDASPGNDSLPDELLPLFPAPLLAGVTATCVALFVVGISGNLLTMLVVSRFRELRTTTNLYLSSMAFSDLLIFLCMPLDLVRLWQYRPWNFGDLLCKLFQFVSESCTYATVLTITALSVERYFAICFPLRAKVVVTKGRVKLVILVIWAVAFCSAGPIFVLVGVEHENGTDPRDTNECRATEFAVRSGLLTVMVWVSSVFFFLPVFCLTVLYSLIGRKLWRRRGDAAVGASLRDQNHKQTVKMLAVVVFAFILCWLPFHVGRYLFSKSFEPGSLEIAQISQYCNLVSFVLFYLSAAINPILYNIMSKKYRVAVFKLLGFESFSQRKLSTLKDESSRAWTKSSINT

Consider `CCN1C(C)CN(CC(=O)NC2(c3ccc4occc4c3)C(=O)Nc3cc(Cl)cc(Cl)c32)CC1C` (single isomer, unassigned; (+)) [Example 1, (+)-N-[4,6-Dichloro-3-(benzofuran-5-yl)-2-oxo-2,3-dihydro-1H-indol-3-yl]-2-(4-ethyl-3,5-dimethylpiperazin-1-yl)acetamide], for which the melting point was 157 to 160 °C.
Molecule `CCN1CCN(C(C)C(=O)NC2(c3ccc4occc4c3)C(=O)Nc3cc(Cl)cc(Cl)c32)CC1` (single isomer, unassigned; (+)) [Example 2, (+)-N-[4,6-Dichloro-3-(benzofuran-5-yl)-2-oxo-2,3-dihydro-1H-indol-3-yl]-2-(4-ethylpiperazin-1-yl)propionamide] showed a melting point of 137 to 138 °C. The IC50 at ghrelin receptor came out at 12 nM.

What is called melting point is the temperature of the solid-liquid transition. In general, IC50 refers to the concentration at which inhibition is half-maximal.
